Assay results from patent publication US12691124B2, “Methods of controlling and improving brain health” (ICAHN SCHOOL OF MEDICINE AT MOUNT SINAI, priority 2019, dated 2026).

Columns and labels:
Assay type in all cases: cell-based, mouse
primary cortical neurons [1] = assay: Autophagy, protein content and cell size in neurons (LC3II/LC3I, BCA, Map2+ area)
Protocol: Immunoblotting. Mice were anesthetized with CO2 followed by decapitation, and the region of interest was rapidly dissected and frozen in liquid nitrogen and stored at −80° C. until further processing. Samples were sonicated at 4° C. in 1% SDS solution supplemented with protease, Trichostatin A (500 ng/ml) and PhosStop phosphatase inhibitor (Roche, Switzerland), and boiled for ten minutes. The protein concentration was determined using a BCA protein assay kit (ThermoFisherScientific, USA) according to the manufacturer's instructions. Protein samples were diluted in equal volume of 2×LDS sample buffer (Invitrogen) and supplemented with DTT to a final concentration of 200 mM (Sigma).
Because autophagy increases lipid species which are mostly non-polar, they are not detected in the polar metabolite data. However, if autophagy is, in fact, activated after BET inhibition, the neurons would be smaller and possibly contain less protein. Indeed, total protein content is decreased by 13% as measured by the BCA assay after one week of BET inhibition (FIG. 13C). […] Moreover, BET inhibition causes an almost three-fold increase in autophagy as measured by the ratio of LC3II to LC3I, a common autophagic marker (FIG. 13D).
Primary cortical neurons treated with IBET858 for 1 week have decreased glycolysis and amino acid metabolites (FIG. 21A). […] A summary of gene expression and metabolite data highlighting downregulation of solute carriers and metabolites that support anabolic and oxidative metabolic programs and an upregulation of neuroprotective metabolites and programs, such as autophagy (FIG. 21C). The glycolytic capacity of primary cortical neurons treated with acute (24 hour) or chronic (1 week) of IBET858 (FIGS. 21D-21H). IBET treated neurons was evaluated using the Seahorse assay. […] Further, the neurons display a decrease in glycolytic capacity as measured by the extracellular acidification rate (ECAR) (FIG. 21H). 1 week of IBET858 treatment increases autophagy as measured by an increase in the LC3 II/I ratio and a decrease in overall protein content by BCA assay (FIGS. 21I and 21J). CAG-RFP-EGFP-Map1lc3b mice expressing the LC3 protein together with RFP and a pH-dependent eGFP were used to evaluate the number of autophagic vesicles by immunofluorescence (FIGS. 21K and 21L). […] Frequency distribution of autophagic vesicles after 24 hours (left) or 1 week (right) treatment with IBET858 (FIG. 21L).

primary cortical neurons [2] = assay: Polar metabolite mass spectrometry in primary cortical neurons
Protocol: Mass Spectrometry. Cell culture plates (2e6 cells per well n=7-8 per group) were washed with 75 mM Ammonium bicarbonate, pH 7.4, warmed to 37 degrees. Plates were quenched on liquid nitrogen for 10 seconds and then placed on dry ice. 1 ml of 70% Ethanol in MS-grade water was warmed to 75 degrees and added to each well. Plates were incubated in a 75 degree water bath for 3 minutes, shaking gently every minute. After 3 minutes, plates were placed on dry ice and once cooled, supernatants were lyophilized using the speed vacuum and stored at −80 degrees. Samples were shipped on dry ice to Cellzome who processed the samples for mass spectrometry and performed the initial analysis annotating metabolites. A semi-quantitative approach was used which determines the metabolite levels relative to a control rather than absolute concentrations. All detected ions were used for statistical analysis regardless of how many samples they were detected. This allows for the identification of low-abundant metabolites that may be present in only a subset of samples.
If IBET858 is indeed decreasing metabolism as indicated, comprehensive metabolic changes after BET inhibition should be observed. Therefore, an unbiased analysis of polar metabolites via mass spectrometry was employed (FIGS. 12A-12C). Accordingly, the levels of 100-150 unique metabolites are changed by chronic BET inhibition in primary cortical neurons.

primary cortical neurons [3] = assay: Aβ1-43 oligomer induced neuronal death; conditions: Aβ1-43 oligomers, 1 week pretreatment
Excerpt: While glutamate toxicity is a widely used and clinically relevant assay, there are other factors that contribute to neuronal death in vivo such as lack of oxygen which occurs after stroke or protein aggregates which are observed in many neurodegenerative disorders. To understand if the observed protective effect is specific to glutamate toxicity, neurons were exposed to either hypoxic (1% O2) environments or Aβ1-43 oligomers (FIGS. 10E and 10F).
IBET treatment protects neurons from neurotoxin-induced cell death (FIGS. 22C-22E). Dot plots show the percentage of cells that are propidium iodide negative after different neurotoxic insults when pre-treated with either control or iBET for 1 week. 6 hours and 24 hours after 1 mM glutamate exposure are shown in FIG. 22C; 18 hours, 24 hours, and 48 hours of hypoxia (1% O2) are shown in FIG. 22D; and 48 hours and 72 hours of Aβ1-43 oligomer exposure (10 μM) are shown in FIG. 22E. Two-way repeated measures ANOVA with multiple comparisons, n=3 per group, ***p<0.001. Experiments were repeated a minimum of three times.

primary microglia = assay: Gene expression in primary microglia treated with IBET858
Protocol: Primary Microglia Culture. Postnatal day 0 C57/Bl6 mice were decapitated in ice cold HBSS. The forebrain was rapidly dissected and treated as above in order to generate a single cell suspension. 60,000 cells per cm2 were seeded in vented, Poly-D-lysine coated flasks. Mixed glial cultures were maintained in DMEM containing 10% FBS and 1% penicillin/streptomycin for 3 weeks. After three weeks, microglia were isolated by shaking the mixed glial cultures for 4 hours at 360 rpm and re-plated at density on 100,0000 cells/cm2. Cultures were given 24 hours to settle before treatment. Cultures were pre-treated for 30 minutes with either DMSO (0.01%) or 1 uM IBET858. After 30 minutes, LPS (100 ng/ml) was added to the cultures. RNA was isolated with Trizol LS according to the manufacturer's recommendations after 1, 4 and 12 hours of LPS treatment.
To test the role of BET proteins in microglial gene expression, primary microglia cultures from mouse forebrain were treated with the brain-permeable BET inhibitors IBET858 (1 μM) for 1, 4, or 12 hours (FIG. 3A). Because loss of BET activity in macrophages negatively impacts differentiation and proliferation189, microglia identity genes were examined to understand if microglial lineage is regulated by BET proteins (FIG. 3C). Hexb, Fcrls, and Fcer1g expression was unaffected by IBET858 indicating microglial differentiation is unaffected.

SMILES: CC(=O)N1c2ccc(-c3ccc(CN4CCCCC4)cc3)cc2[C@H](Nc2ccccc2)CC1C (stereo in doubt) [IBET858]
- decrease in somatic area (Map2+ area) (primary cortical neurons [1]): 25%
- autophagic vesicles (CAG-RFP-EGFP-Map1lc3b neurons) (primary cortical neurons [1]; 1 w): an increase in autophagic vesicles
- increase in autophagy, ratio of LC3II to LC3I (primary cortical neurons [1]; 1 week): three
- decrease in total protein content, BCA assay (primary cortical neurons [1]; one week of BET inhibition): 13%
- enrichment of decreased metabolites, Arginine/Proline metabolism (OR) (primary cortical neurons [2]; 1 week IBET858): 26.8
- enrichment of decreased metabolites, Glutamate metabolism (OR) (primary cortical neurons [2]; 1 week IBET858): 24.4
- enrichment of decreased metabolites, Tyrosine metabolism (OR) (primary cortical neurons [2]; 1 week IBET858): 30.33
- enrichment of decreased metabolites, glycolysis (OR) (primary cortical neurons [2]; 1 week IBET858): 48.8
- enrichment of decreased metabolites, pentose phosphate pathway (OR) (primary cortical neurons [2]; 1 week IBET858): 42
- enrichment of increased metabolites, aspartate metabolism pathway (OR) (primary cortical neurons [2]; 1 week IBET858): 23.5
- amino acids significantly decreased (primary cortical neurons [2]; 1 week IBET858, 13/20): 65%
- unique metabolites changed (primary cortical neurons [2]; chronic BET inhibition (1 week)): 100-150 metabolites
- loss of neurons due to toxic Aβ oligomers (primary cortical neurons [3]): significantly prevents loss of neurons
- immune response and cell activation pathway genes (primary microglia; 1 μM): suppresses
- genes significantly down-regulated (primary microglia; 1 μM IBET858, 4 hours): 1245 genes
- genes significantly down-regulated (primary microglia; 1 μM IBET858, 12 hours): 1175 genes
- microglia identity gene expression (Hexb, Fcrls, Fcer1g) (primary microglia; 1 μM, 1, 4 or 12 hours): unaffected
- phagocytosis gene expression (primary microglia; 1 μM, all time points): also unaffected
